In ChEMBL document CHEMBL4118070, “Synthesis, antimicrobial, antiquorum-sensing and antitumor activities of new benzimidazole analogs” (Eur J Med Chem, 2017):
≈ marks a conversion by molar mass, not a printed value. Calls of active or inactive are those of the source. The calls are words filed in the database; no cut-off is given here.

How the values were obtained:
Escherichia coli = test: Antibacterial activity against Escherichia coli ATCC 12435 after 24 hrs by two-fold serial dilution method; assay type: functional; details: ATCC 12435, 24 h
Bacillus cereus = test: Antibacterial activity against Bacillus cereus UW 85 after 24 hrs by two-fold serial dilution method; assay type: functional; details: UW 85, 24 h
Staphylococcus aureus = test: Antibacterial activity against Staphylococcus aureus ATCC 29213 after 24 hrs by two-fold serial dilution method; assay type: functional; details: ATCC 29213, 24 h
Candida albicans = test: Antifungal activity against Candida albicans after 48 hrs by two-fold serial dilution method; assay type: functional
Aspergillus fumigatus = test: Antifungal activity against Aspergillus fumigatus 293 after 48 hrs by two-fold serial dilution method; assay type: functional; details: Af293, 48 h
[1] = test system: Chromobacterium violaceum; test: Inhibition of quorum sensing system in Chromobacterium violaceum ATCC 12472 assessed as diameter of violacein pigment inhibition at 5 mg/ml after 48 hrs
HepG2 = test: Cytotoxicity against human HepG2 cells assessed as decrease in cell viability after 48 hrs by MTT assay; assay type: functional, cell-based; details: HepG2, 48 h
HCT-116 = test: Cytotoxicity against human HCT116 cells assessed as decrease in cell viability after 48 hrs by MTT assay; assay type: functional, cell-based; details: HCT-116, 48 h
MCF7 = test: Cytotoxicity against human MCF7 cells assessed as decrease in cell viability after 48 hrs by MTT assay; assay type: functional, cell-based; details: MCF7, 48 h
Ehrlich [2] = test: Antitumor activity against mouse EAC allografted in Swiss mouse assessed as mean mouse survival time at 0.5 mg administered 9 days (reference value: 14.5 days); assay type: functional
Ehrlich [3] = test: Antitumor activity against mouse EAC allografted in Swiss mouse assessed as increase in mouse life span at 0.5 mg administered 9 days relative to control; assay type: functional
Ehrlich [4] = test: Antitumor activity against mouse EAC allografted in Swiss mouse assessed as tumor volume at 0.5 mg administered 9 days (reference value: 9.85 ml); assay type: functional
Ehrlich [5] = test: Antitumor activity against mouse EAC allografted in Swiss mouse assessed as hemoglobin count in blood at 0.5 mg administered 9 days (reference value: 8.73 g/dl); assay type: functional
Ehrlich [6] = test: Antitumor activity against mouse EAC allografted in Swiss mouse assessed as RBC count in blood at 0.5 mg administered 9 days (reference value: 3.69 10^6/mm3); assay type: functional
Ehrlich [7] = test: Antitumor activity against mouse EAC allografted in Swiss mouse assessed as WBC count in blood at 0.5 mg administered 9 days (reference value: 23.96 10^3/mm3); assay type: functional
WI-38 = test: Cytotoxicity against human W138 cells assessed as decrease in cell viability after 48 hrs by MTT assay; assay type: cell-based; details: WI-38, 48 h
[8] = Displacement of methyl green from DNA (unknown origin) incubated in dark for 24 hrs by colorimetric method
Ehrlich [9] = test: Antitumor activity against mouse EAC allografted in Swiss mouse assessed as decrease in viable tumor cell count at 0.5 mg administered 9 days by trypan blue staining method; assay type: functional

Compound	MIC (Escherichia coli)	MIC (Bacillus cereus)	MIC (Staphylococcus aureus)	MIC (Candida albicans) [µM]	MIC (Aspergillus fumigatus)	Activity [1] [mm]	IC50 (HepG2) [µM]	IC50 (HCT-116) [µM]	IC50 (MCF7) [µM]	MST (Ehrlich [2]) [days]	ILS (Ehrlich [3]) [%]	Activity (Ehrlich [4]) [mL]	Activity (Ehrlich [5]) [g/dL]	Activity (Ehrlich [6]) [×10⁶ /mm3]	Activity (Ehrlich [7]) [×10³ /mm3]	IC50 (WI-38) [µM]	IC50 [8] [µM]	Activity (Ehrlich [9])
O=[N+]([O-])c1ccc2[nH]c(CSCc3nc4ccccc4[nH]3)nc2c1	> 2500 µg/mL	> 2500 µg/mL	3680 µM	3680 (≈ 1250 µg/mL)	> 2500 µg/mL	4	11.2	7.91	13.1									
N#Cc1sc(Nc2ccccc2)nc1NC(=O)CSCc1nc2cc([N+](=O)[O-])ccc2[nH]1	> 2500 µg/mL	5370 µM	5370 µM	2690 (≈ 1250 µg/mL)	5370 µM	< 2	9.48	8.43	11.3									
O=c1[nH]cc(F)c(=O)[nH]1 [FLUOROURACIL]							5.3	4	4.3	49	237.93	1.6	12.96	5.21	8.86	5.73		
NC(=O)CSCc1nc2cc([N+](=O)[O-])ccc2[nH]1	587 µM	293 µM	147 µM	147 (≈ 39.1 µg/mL)	293 µM	9	26.9	17.2	19.7								41.3	
CC1(C)S[C@@H]2[C@H](NC(=O)[C@H](N)c3ccccc3)C(=O)N2[C@H]1C(=O)O [AMPICILLIN]	55.9 µM	3580 µM	894 µM															
OC(Cn1cncn1)(Cn1cncn1)c1ccc(F)cc1F [FLUCONAZOLE]				8160 (≈ 2500 µg/mL)	> 2500 µg/mL													
CC1=NN(C(=O)CSCc2nc3cc([N+](=O)[O-])ccc3[nH]2)C(=O)C1	> 2500 µg/mL	> 2500 µg/mL	> 2500 µg/mL	7200 (≈ 2500 µg/mL)	> 2500 µg/mL	< 2	7.33	5.41	8.07									
COc1cccc2c1C(=O)c1c(O)c3c(c(O)c1C2=O)C[C@@](O)(C(=O)CO)C[C@@H]3O[C@H]1C[C@H](N)[C@H](O)[C@H](C)O1 [DOXORUBICIN]																	32.4	
CCOC(=O)CSCc1nc2cc([N+](=O)[O-])ccc2[nH]1	4230 µM	2120 µM	2120 µM	2120 (≈ 625 µg/mL)	2120 µM	< 2	> 100	> 100	> 100									
O=C(CSCc1nc2cc([N+](=O)[O-])ccc2[nH]1)c1ccc(Cl)cc1	> 2500 µg/mL	6910 µM	864 µM	864 (≈ 312 µg/mL)	3450 µM	< 2	2.65	2.23	2.8	39.2	170.34	2.83	12.32	4.87	9.1	33.8	62.8	Active
NC(=S)NNC(=O)CSCc1nc2cc([N+](=O)[O-])ccc2[nH]1	> 2500 µg/mL	3670 µM	918 µM	459 (≈ 156 µg/mL)	1840 µM	11	7.05	4.71	7.53								66.2	
O=C(CSCc1nc2cc([N+](=O)[O-])ccc2[nH]1)c1ccccc1	> 2500 µg/mL	> 2500 µg/mL	3820 µM	1910 (≈ 625 µg/mL)	7640 µM	< 2	16.1	12.3	18.6									
NNC(=O)CSCc1nc2cc([N+](=O)[O-])ccc2[nH]1	> 2500 µg/mL	> 2500 µg/mL	> 2500 µg/mL	1110 (≈ 312 µg/mL)	4440 µM	< 2	18.6	5.33	13.2								87.2	
Oc1cc(O)c2c(c1)O[C@H](c1ccc(O)c(O)c1)[C@@H](O)C2						2												
O=C(CSCc1nc2cc([N+](=O)[O-])ccc2[nH]1)NNC(=S)Nc1ccccc1	> 2500 µg/mL	> 2500 µg/mL	> 2500 µg/mL	375 (≈ 156 µg/mL)	750 µM	< 2	> 100	29.2	> 100								52.3	
O=C(CSCc1nc2cc([N+](=O)[O-])ccc2[nH]1)N/N=C/c1ccc(Cl)cc1	> 2500 µg/mL	> 2500 µg/mL	> 2500 µg/mL	774 (≈ 312 µg/mL)	1550 µM	< 2	56.8	15.3	13.7									
N#CCSCc1nc2cc([N+](=O)[O-])ccc2[nH]1	> 2500 µg/mL	5040 µM	> 2500 µg/mL	5040 (≈ 1250 µg/mL)	5040 µM	< 2	30.6	28.2	27.4									
O=[N+]([O-])c1ccc2[nH]c(CSCc3nc4cc([N+](=O)[O-])ccc4[nH]3)nc2c1	1630 µM	813 µM	406 µM	406 (≈ 156 µg/mL)	406 µM	11	2.25	2.41	1.74	47	224.14	2.22	13.18	5.45	7.23	25.4	37.1	Active
O=C(CSCc1nc2cc([N+](=O)[O-])ccc2[nH]1)c1ccc(Br)cc1	> 2500 µg/mL	769 µM	192 µM	385 (≈ 156 µg/mL)	385 µM	< 2	2.01	1.78	1.55	45.3	212.42	2.41	12.92	5.14	7.41	31.5	34.6	Active
CCOC(=O)c1c(NC(=O)CSCc2nc3cc([N+](=O)[O-])ccc3[nH]2)sc2c1CCCCC2	2560 µM	2560 µM	2560 µM	1280 (≈ 625 µg/mL)	2560 µM	< 2	7.39	7.51	10.3									
